From patent US10683295B2, “Chiral N-acyl-5,6,7(8-substituted)-tetrahydro-[1,2,4]triazolo[4,3-A]pyrazines as selective NK-3 receptor antagonists, pharmaceutical composition, methods for use in NK-3 receptor mediated disorders and chiral synthesis thereof” (Ogeda SA, priority 2011, dated 2020)

Test system: luteinizing hormone (LH) plasma levels
Test: Castrated male rat model, circulating luteinizing hormone (LH)
Type: in vivo
Conditions: single intravenous 10 mg/kg dose, castrated male Sprague-Dawley rats, 1 hour after dosing
Description: Castrated Male Rat Model to Assess the Effect of Compound of Invention on Circulating Levels of Luteinizing Hormone (LH).
Thus, a castrated rat model is used to provide a broad index for measurement of LH inhibition as a marker of test compound inhibition of the GnRH signaling pathway.
Castrated adult male Sprague-Dawley (SD) rats (150-175 g) were purchased from Janvier (St Berthevin, France). […] The animals were allowed 2 weeks of postoperative recovery prior to study. Animals were handled on a daily basis. Standard diet and tap water were provided ad libitum. […] On the study day, animals were acclimated to the procedure room for a period of one hour prior to the initiation of the experiment.
Compounds of the invention were formulated as apyrogen water with 90 g/L (2-Hydroxypropyl)-β-CycloDextrin.
After basal sampling (TO) a single dose of compounds of the invention or vehicle was administrated intravenously to rats. Blood was then collected at 60 min post dosing. Blood samples were obtained via tail vein bleed, drawn into EDTA-containing tubes and centrifuged immediately. […] Serum LH levels were determined using radioimmunoassay kit from RIAZEN—Rat LH, Zentech (Liege, Belgium). Baseline was defined as the initial basal blood sample.

SMILES | circulating LH levels
Cc1csc(-c2nnc3n2CCN(C(=O)c2ccc(-c4cccs4)cc2)[C@@H]3C)n1 [Compound 19, (R)-(8-methyl-3-(4-methylthiazol-2-yl)-5,6-dihydro-[1,2,4]triazolo[4,3-a]pyrazin-7(8H)-yl)(4-(thiophen-2-yl)phenyl)methanone] | significantly suppressed
Cc1nc(-c2nnc3n2CCN(C(=O)c2ccc(-c4cccs4)cc2)[C@@H]3C)cs1 [Compound 1, (R)-(8-methyl-3-(2-methylthiazol-4-yl)-5,6-dihydro-[1,2,4]triazolo[4,3-a]pyrazin-7(8H)-yl)(4-(thiophen-2-yl)phenyl) methanone] | significantly suppressed
